Active and inactive are the calls of the source.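 How the source made its calls: active means compounds giving half or more protection of infected cells from virus-caused growth loss, again on retest; inactive means the rest.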
System: CEM cells HIV-1 protection, formazan growth assay
Assay: NCI AIDS Antiviral Assay
Conditions: for IC50: measured here: growth of uninfected CEM cells
How it was run: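 Soluble formazan readout of cell growth; CEM cells ± HIV-1; 5 drug concs. ≥50% protection → retest; ≥50% again = moderately active; reproducible 100% = confirmed active.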

Row | SMILES | outcome | EC50 [µM] | IC50 [µM]
1 | O=C(O)C1=Cc2cccc3cccc(c23)C1=O | inactive |  | 
2 | CCOC(=O)c1ccc(CSc2ccccc2C(=O)OCC)c([N+](=O)[O-])c1 |  | > 7.08 | > 7.08
3 | C/C=C(\C)C(=O)OCC12C(OC(C)=O)CC(C)C(C)(CCC3=CC(=O)OC3)[C@H]1CCCC21CO1 (some centres undefined) |  | > 75.9 | > 75.9
4 | CCOP(=S)(N/N=C1/CCCC(C)C1)OCC (centres undefined) |  | > 200 | 102
5 | CCNC(=O)c1ccccc1S(C)=O (centres undefined) |  | > 200 | > 200
6 | CC(C)(CO)NCC(O)CS(=O)(=O)O (centres undefined) |  | > 200 | > 200
7 | COC(=O)CC(c1ccc(OC)cc1)C(CC(=O)OC)c1ccc(OC)cc1 (centres undefined) |  | > 67.6 | 60.3
8 | COC1/C=C/OC2(C)Oc3c(C)c(O)c4c(O)c(c(/C=N/N5CCN(Cc6cccc(C(F)(F)F)c6)CC5)c(O)c4c3C2=O)NC(=O)C(C)=C/C=C/C(C)C(O)C(C)C(O)C(C)C(OC(C)=O)C1C (centres undefined) |  | > 200 | 6.92
9 | O=C1c2cccc(NCCCNCCO)c2C(=O)c2cccc(NCCCNCCO)c21 | inactive |  | 
10 | Cc1ccc(S(=O)(=O)[N-]C2C(=O)c3ccccc3C(=O)C2[n+]2cccc(C(N)=O)c2)cc1 (centres undefined) |  | > 200 | > 200
11 | N[C@@H]1C(CO)NC[C@@H]1CO (some centres undefined) |  | > 200 | > 200
12 | Cc1n[nH]c(=O)n1N1C(=O)c2ccccc2C1=O |  | > 200 | > 200
13 | CCOP(=O)(C/C=C/CN(C(=O)OC(C)(C)C)C(=O)OC(C)(C)C)OCC | inactive |  | 
14 | CC(=O)NCC1OC2COC(c3ccccc3)OC2C(NC(=O)c2ccccc2)C1OC(=O)c1ccccc1 (centres undefined) | inactive |  | 
15 | Nc1nnc2nc(CC(=O)/C=C/c3ccccc3)c(=O)[nH]n12 |  | > 170 | > 170
16 | Nc1ccn(C2CC(O)C(COP(O)(=S)OC3CC(n4ccc(N)nc4=O)OC3CO)O2)c(=O)n1 (centres undefined) |  | > 200 | > 200
17 | Cc1cccc2c1C(=O)C1(Cc3ccccc3C1=O)C2 (centres undefined) |  | > 200 | > 200
18 | COC(=O)C1=C2CCC(=O)[C@@]2(C)CC(C)=C(C)C1 | inactive |  | 
19 | CC1=CC(=O)Nc2ccccc2S1 |  | > 234 | 85.1
20 | C=CCOCCCC(=O)C(=[N+]=[N-])C(=O)OC |  | > 251 | 57.5
21 | Cc1c(NC(=O)C(=O)N=NC(=O)c2ccncc2)c(O)c2ccccc2c1O | inactive |  | 
22 | C=CCCCCCCCCCOC1C=CC(O)C(CO)O1 (centres undefined) |  | > 200 | 35.5
23 | CC1C2CC(CC2=O)C1(C)C (centres undefined) |  | > 1620 | > 1620

Row | SMILES | outcome | EC50 [µM] | IC50 [µM]
24 | O=C1c2cccn2-c2ccccc2SC1c1ccccc1 (centres undefined) |  | > 200 | 20.4
25 | CC(=O)OC[C@H]1CN(OC(C)=O)C[C@@H](n2cc(C)c(=O)[nH]c2=O)O1 |  | > 200 | > 200
26 | CN(C)CCN=C1Nc2ccccc2C(=S)N2CSCC12 (centres undefined) |  | > 200 | > 200
27 | Cc1nnc(CC#N)n1NC(=O)CC#N |  | > 200 | > 200
28 | COC(=O)[C@H](CCSC)NC(=O)N[C@H](C)c1ccccc1 |  | > 200 | > 200
29 | COC(=O)C(=O)C(C(=O)C(=O)Nc1ccc(C)cc1)c1nc2ccc(C(=O)c3ccccc3)cc2[nH]c1=O (centres undefined) |  | > 26.3 | > 26.3
30 | O=C1N[C@@H]2C(=C[C@H](O)[C@@H](O)[C@H]2O)c2cc3c(c(O)c21)OCO3 | inactive |  | 
31 | N#Cc1nc(-c2ccccc2O)oc1N |  | > 200 | > 100
32 | Cn1c2ccccc2n2c3nc4ccccc4nc3c(C#N)c12 | inactive |  | 
33 | COC(=O)CCN(CCC(=O)OC)C1CC1 |  | > 200 | > 200
34 | COC(=O)C(COC(C)=O)NC(=O)/C=C/c1ccc(O)c(OC(C)=O)c1 (centres undefined) |  | > 200 | 10
35 | Nc1ccc(Cc2c(N)[nH]c(=O)[nH]c2=O)cc1 |  | > 200 | > 200
36 | CC(=O)Nc1ccc(C(=O)NN2C(=O)C(Cl)C2c2ccc(Cl)cc2)cc1 (centres undefined) |  | > 200 | > 200
37 | CCCCCCCCCCCCCCCCCCOc1ccc2c(c1)-c1nc-2nc2[nH]c(nc3nc(nc4[nH]c(n1)c1cc(OCCCCCCCCCCCCCCCCCC)ccc41)-c1ccc(OCCCCCCCCCCCCCCCCCC)cc1-3)c1cc(OCCCCCCCCCCCCCCCCCC)ccc21 |  | > 8.51 | > 8.51
38 | CC(C)(C)SSCCN |  | > 200 | > 200
39 | O=C1C(=O)N(C23CC4CC(CC(C4)C2)C3)C(=S)N1c1ccccc1 |  | > 200 | 110
40 | CC(C)(C)c1cc(C(O)(C(=O)O)C(=O)O)cc(C(C)(C)C)c1O |  | > 200 | > 200
41 | N#Cc1sc2c(c1OC(=O)c1ccc(Cl)cc1)c(=O)n(-c1ccccc1)c(=S)n2-c1ccccc1 |  | > 200 | 1.2
42 | CCC(C)c1cccc(C)c1NC(=O)C(=O)Cc1nc2ccccc2s1 (centres undefined) |  | > 186 | > 186
43 | COC(=O)c1cc(O)ccc1NC(=O)c1ccc(O)cc1 |  | > 912 | 363
44 | COC(=O)c1ccc(CSc2ccccc2)cc1 |  | > 28.2 | > 28.2
45 | C#CCN(C)Cc1ccccc1 |  | > 200 | > 200
46 | COc1ccc(/C=C/C(=O)c2sc(Nc3ccc([N+](=O)[O-])cc3)nc2C)cc1 |  | > 47.9 | 39.8

Row | SMILES | outcome | EC50 [µM] | IC50 [µM]
47 | CN1CCCN(C)CCCN(C)CCCN(C)CCC1 |  | > 100 | > 100
48 | CN/N=C(/Cc1occc(=O)c1O)C(=O)Nc1ccccc1C |  | > 794 | 724
49 | CNC(=S)N/N=C(\C)c1cc(OC)c(OC)cc1O |  | > 200 | > 200
50 | CCCNC(=O)c1nc(SC)sc1NC(=O)c1ccc([N+](=O)[O-])cc1 |  | > 200 | 191
51 | CCCCCCCCCCCCCC(=O)OCC1OC(n2cc(F)c(=O)[nH]c2=O)C(N)C(OC(=O)CCCCCCCCCCCCC)C1O (centres undefined) |  | > 7.41 | > 7.41
52 | CCN(CC)CC(=O)Nc1c(C)cc(C(=O)NN)cc1C |  | > 200 | > 200
53 | S=c1sc2ccccc2n1CN1CCCC1 |  | > 200 | 102
54 | C=CC(C)(C)[C@@]12CC3C(=O)N[C@@H](CC(C)C)C(=O)N3[C@@H]1N(C(C)=O)c1ccccc12 (some centres undefined) |  | > 30.2 | > 30.2
55 | Cc1nnc2nc(-c3ccccc3)nc(-c3ccccc3)n12 |  | > 200 | > 200
56 | CCOC(=O)/C=C\SCCC(=O)O |  | > 1230 | > 1230
57 | CN(C)CCc1c2c(nc3ccccc13)C(=O)c1cccnc1C2=O | inactive |  | 
58 | CC(C)(O)/C=C\P(=O)(O)O |  | > 200 | > 200
59 | Cn1c(=O)c2nc(NCCO)cnc2n(C)c1=O |  | > 200 | 85.1
60 | COc1cc2c(cc1OC)C1c3ccccc3CCN1CC2 (centres undefined) |  | > 200 | 93.3
61 | CC(C)(C)n1c(=O)n(-c2ccccc2)n(C(C)(C)C)c1=O |  | > 200 | > 200
62 | CCC(C)C(N)CO (centres undefined) |  | > 200 | > 200
63 | Cc1c(/C=N/NC(=O)c2cc(Br)cc(Br)c2O)c(=O)n(-c2ccccc2)n1C |  | > 200 | 123
64 | O=C(NC(=O)c1cn(CCN(CCO)C(=O)NCCCCCCNC(=O)N(CCO)CCn2cc(C(=O)NC(=O)OCc3ccccc3)c(=O)[nH]c2=O)c(=O)[nH]c1=O)OCc1ccccc1 | inactive |  | 
65 | CCCCCCCCCCCCCC(=O)OCC1OC(n2cc(C)c(=O)[nH]c2=O)CC1O (centres undefined) |  | > 200 | 11.7
66 | O=C1Oc2ccccc2C(=O)/C1=C/N1C(=O)N/C(=C\c2ccccc2Br)C1=O |  | > 200 | 83.2
67 | Cc1ccccc1-c1c(N)nc(NC#N)nc1C(=O)Nc1ccccc1 | inactive |  | 
68 | CC1(C)OC(=S)N(c2ccccc2)C12C=Cc1cc3ccccc3cc1O2 (centres undefined) |  | > 200 | 79.4
69 | COC(=O)[C@]1(C)CCC[C@]2(C)c3ccc(C(C)C)cc3C(=O)[C@@H](Br)[C@@H]12 |  | > 200 | 8.51

Row | SMILES | outcome | EC50 [µM] | IC50 [µM]
70 | COc1cc(O)cc(O)c1C(=O)CC(Cl)(Cl)Cl |  | > 316 | 170
71 | CC1(C)CNC[C@](C)(OCCO)C(=O)[N-]C(C)(C)CNC[C@@](C)(OCCO)C(=O)[N-]1.[Ni+2] |  | > 200 | 182
72 | O=C1c2ccccc2C(=O)N1CSS(=O)(=O)O |  | > 200 | > 200
73 | N=C(c1ccccc1)N1CCCCC1 | inactive |  | 
74 | CC(=O)OC1CCC2(C)C(C)C(C)CCC2(O)C1O (centres undefined) |  | > 200 | 15.1
75 | CC(C)(c1cccs1)c1cscc1C(=O)O |  | > 200 | > 200
76 | Cc1cc2c(cc1C)C(=O)C1(C2)Cc2cc3c(cc2C1=O)CCC3 (centres undefined) |  | > 100 | > 100
77 | CC1=C[C@H]2O[C@@H]3C[C@H]4OC(=O)/C=C\C=C\C(C(C)O)OCC[C@@H](C)[C@H](O)C(=O)OC[C@@]2(CC1)[C@]4(C)[C@]31CO1 (some centres undefined) |  | > 0.0479 | 0.000102
78 | COc1ccc(S(=O)(=O)c2ccc(C(=O)O)cc2)cc1 |  | > 200 | > 200
79 | C/C(Cc1ccccc1)=N\NC(N)=S | inactive |  | 
80 | C=C1C(O)O[C@@H]2O[C@@]3(C)CC[C@H]4[C@H](C)CCC1[C@@]24O3 (some centres undefined) |  | > 200 | 95.5
81 | CCc1cc2c(oc3c4ccccc4ccc23)c(=O)[nH]1 |  | > 200 | > 200
82 | O=C1CCCCC1=O | inactive |  | 
83 | C[N+](C)(C)CCC(=O)CC[N+](C)(C)C |  | > 8.32 | > 8.32
84 | O=c1oc2ccccc2c(O)c1C1c2ccccc2Oc2c1c(=O)oc1ccccc21 (centres undefined) | inactive |  | 
85 | CC(C)CCC[C@@H](C)C1CCC2[C@@H]3CC(O)C4C[C@@H](OS(=O)(=O)O)CC[C@]4(C)C3CC[C@@]21C (some centres undefined) |  | > 49 | 24.5
86 | CN(C)/N=C(/SS/C(=N/N(C)C)C(F)(F)F)C(F)(F)F | inactive |  | 
87 | O=C(NO)Nc1ccc(Cl)cc1 | inactive |  | 251
88 | CC12CCC(CC1)C(C)(C)N=C(N)S2 |  | > 200 | 56.2
89 | Clc1ccccc1-c1nn2c(CCCCCCCCc3nnc4sc(-c5ccccc5Cl)nn34)nnc2s1 |  | > 200 | 105
90 | CC(C)=CC(=O)C1c2cccc(O)c2C(=O)c2c(O)cc(C)cc21 (centres undefined) |  | > 30.9 | 10.2
